Measurements: patent US9708314B2, “Heterocyclic amide compound” (NISSAN CHEMICAL INDUSTRIES, LTD., priority 2013, dated 2017)

Assays:
Assay type in all cases: in vivo
[1] = test system: Setaria viridis; assay: Test Example 4: herbicidal effect by application to foliage (diluvial soil, plastic box); settings: for G (Setaria viridis) herbicidal effect grade: Application herbicide amount 320 g/ha, foliage application
Method in brief: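 Read-out is a 0–5 visual grade of herbicidal ratio (5: ≥90%, almost withered; 0: ≤5%) taken three weeks after treatment. Compound was applied as a diluted emulsion to stem and leaf parts of 14-day greenhouse-grown plants (25° C. to 30° C.) at rates expressed as g/ha.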

[2] = test system: Scirpus juncoides; assay: Test Example 1: herbicidal activity, application before weed generation in submerged conditions; settings: Application herbicide amount 320 g/ha; Seventeenth Table
Method in brief: (§1)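 Submerged pot test: alluvial soil, 4 cm water, seeds sown mixed, 2.5-leaf rice transplanted; emulsion in water applied to surface day of sowing, dose g/ha; greenhouse 25–30° C.; 3 wk; 0–5 rating.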

[3] = test system: Echinochloa oryzacola Vasing.; assay: as above; settings: Application herbicide amount 320 g/ha; Seventeenth Table
Method in brief: as §1

[4] = test system: Monochoria vaginalis; assay: as above; settings: Application herbicide amount 320 g/ha; Seventeenth Table
Method in brief: as §1

[5] = test system: transplanted Oryza sativa; assay: Test Example 1: effect on crop, application before weed generation in submerged conditions; settings: Application herbicide amount 320 g/ha; Seventeenth Table
Method in brief: as §1

[6] = test system: Cyperus difformis; assay: Test Example 3: herbicidal effect by application to foliage (Wagner pot, water depth 0.1-0.5 cm); settings: Nineteenth Table; application to foliage; application herbicide amount 320 g/ha
Method in brief: (§2)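 Post-emergence foliar application at a stated g/ha rate to plants grown 14 days from seed in alluvial soil, greenhouse 25–30 °C. Visual score after 3 weeks: 0 (≤5% effect) through 5 (≥90%).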

[7] = test system: Echinochloa crus-galli var. crus-galli; assay: as above; settings: Nineteenth Table; application to foliage; application herbicide amount 320 g/ha
Method in brief: as §2

[8] = test system: Leptochloa chinensis; assay: as above; settings: Nineteenth Table; application to foliage; application herbicide amount 320 g/ha
Method in brief: as §2

| SMILES | G (Setaria viridis) herbicidal effect grade [1] | B: Scirpus juncoides (herbicidal effect grade) [2] | A: Echinochloa oryzicola Vasing. (herbicidal effect grade) [3] | C: Monochoria vaginalis (herbicidal effect grade) [4] | a: transplanted Oryza sativa (effect on crop grade) [5] | E (herbicidal effect grade) [6] | H (herbicidal effect grade) [7] | D (herbicidal effect grade) [8] | G: herbicidal effect on Setaria viridis ([1]; application to foliage, application herbicide amount 320 g/ha) |
| --- | --- | --- | --- | --- | --- | --- | --- | --- | --- |
| O=C(Nc1nnco1)c1ccc(C(F)(F)F)n2c(C3CC3)nnc12 [1-144] | 2 (Herbicidal ratio of 20% or more and less than 40%) | 3 (Herbicidal ratio of 40% or more and less than 70%) | 5 (Herbicidal ratio of 90% or more (almost completely withered)) | 3 (Herbicidal ratio of 40% or more and less than 70%) | 1 (Herbicidal ratio of 5% or more and less than 20%) | 2 (Herbicidal ratio of 20% or more and less than 40%) | 5 (Herbicidal ratio of 90% or more (almost completely withered)) | 4 (Herbicidal ratio of 70% or more and less than 90%) | – |
| C#CCN(C)c1nnc2c(C(=O)Nc3nnc(C)o3)ccc(C(F)(F)F)n12 [1-152] | 3 (Herbicidal ratio of 40% or more and less than 70%) | 4 (Herbicidal ratio of 70% or more and less than 90%) | 5 (Herbicidal ratio of 90% or more (almost completely withered)) | 3 (Herbicidal ratio of 40% or more and less than 70%) | 2 (Herbicidal ratio of 20% or more and less than 40%) | 4 (Herbicidal ratio of 70% or more and less than 90%) | 5 (Herbicidal ratio of 90% or more (almost completely withered)) | 5 (Herbicidal ratio of 90% or more (almost completely withered)) | – |
| COc1cc(OC)cc(-c2nnc3c(C(=O)Nc4nnco4)ccc(C(F)(F)F)n23)c1 [1-148] | 3 (Herbicidal ratio of 40% or more and less than 70%) | 5 (Herbicidal ratio of 90% or more (almost completely withered)) | 5 (Herbicidal ratio of 90% or more (almost completely withered)) | 5 (Herbicidal ratio of 90% or more (almost completely withered)) | 4 (Herbicidal ratio of 70% or more and less than 90%) | 5 (Herbicidal ratio of 90% or more (almost completely withered)) | 5 (Herbicidal ratio of 90% or more (almost completely withered)) | 5 (Herbicidal ratio of 90% or more (almost completely withered)) | – |
| COc1ccc(Cc2nnc3c(C(=O)Nc4nnco4)ccc(C(F)(F)F)n23)cc1 [1-151] | 3 (Herbicidal ratio of 40% or more and less than 70%) | 5 (Herbicidal ratio of 90% or more (almost completely withered)) | 5 (Herbicidal ratio of 90% or more (almost completely withered)) | 3 (Herbicidal ratio of 40% or more and less than 70%) | 0 (Herbicidal ratio of 5% or less (almost no effect)) | 4 (Herbicidal ratio of 70% or more and less than 90%) | 5 (Herbicidal ratio of 90% or more (almost completely withered)) | 4 (Herbicidal ratio of 70% or more and less than 90%) | – |
| O=C(Nc1nnco1)c1ccc(C(F)(F)F)n2c(-c3ccc(Cl)nc3)nnc12 [1-150] | 3 (Herbicidal ratio of 40% or more and less than 70%) | 5 (Herbicidal ratio of 90% or more (almost completely withered)) | 5 (Herbicidal ratio of 90% or more (almost completely withered)) | 5 (Herbicidal ratio of 90% or more (almost completely withered)) | 4 (Herbicidal ratio of 70% or more and less than 90%) | 5 (Herbicidal ratio of 90% or more (almost completely withered)) | 5 (Herbicidal ratio of 90% or more (almost completely withered)) | 5 (Herbicidal ratio of 90% or more (almost completely withered)) | – |
| COc1ccc(-c2nnc3c(C(=O)Nc4nnco4)ccc(C(F)(F)F)n23)cc1 [1-149] | 3 (Herbicidal ratio of 40% or more and less than 70%) | 4 (Herbicidal ratio of 70% or more and less than 90%) | 5 (Herbicidal ratio of 90% or more (almost completely withered)) | 3 (Herbicidal ratio of 40% or more and less than 70%) | 3 (Herbicidal ratio of 40% or more and less than 70%) | 5 (Herbicidal ratio of 90% or more (almost completely withered)) | 5 (Herbicidal ratio of 90% or more (almost completely withered)) | 5 (Herbicidal ratio of 90% or more (almost completely withered)) | – |
| CSCc1nnc2c(C(=O)Nc3nnco3)ccc(C(F)(F)F)n12 [1-146] | 5 (Herbicidal ratio of 90% or more (almost completely withered)) | 5 (Herbicidal ratio of 90% or more (almost completely withered)) | 5 (Herbicidal ratio of 90% or more (almost completely withered)) | 5 (Herbicidal ratio of 90% or more (almost completely withered)) | 3 (Herbicidal ratio of 40% or more and less than 70%) | 4 (Herbicidal ratio of 70% or more and less than 90%) | 5 (Herbicidal ratio of 90% or more (almost completely withered)) | 5 (Herbicidal ratio of 90% or more (almost completely withered)) | – |
| O=C(Nc1nnco1)c1ccc(C(F)(F)F)n2c(-c3ccc(F)cc3)nnc12 [1-147] | 3 (Herbicidal ratio of 40% or more and less than 70%) | 5 (Herbicidal ratio of 90% or more (almost completely withered)) | 5 (Herbicidal ratio of 90% or more (almost completely withered)) | 5 (Herbicidal ratio of 90% or more (almost completely withered)) | 2 (Herbicidal ratio of 20% or more and less than 40%) | 3 (Herbicidal ratio of 40% or more and less than 70%) | 5 (Herbicidal ratio of 90% or more (almost completely withered)) | 5 (Herbicidal ratio of 90% or more (almost completely withered)) | – |
| Cc1nnc(NC(=O)c2ccc(C(F)(F)F)n3c(N(C)CCC#N)nnc23)o1 [1-153] | 4 (Herbicidal ratio of 70% or more and less than 90%) | 3 (Herbicidal ratio of 40% or more and less than 70%) | 3 (Herbicidal ratio of 40% or more and less than 70%) | 4 (Herbicidal ratio of 70% or more and less than 90%) | 2 (Herbicidal ratio of 20% or more and less than 40%) | 3 (Herbicidal ratio of 40% or more and less than 70%) | 5 (Herbicidal ratio of 90% or more (almost completely withered)) | 5 (Herbicidal ratio of 90% or more (almost completely withered)) | – |
| CCC(CC)c1nnc2c(C(=O)Nc3nnco3)ccc(C(F)(F)F)n12 [1-145] | 4 (Herbicidal ratio of 70% or more and less than 90%) | 5 (Herbicidal ratio of 90% or more (almost completely withered)) | 5 (Herbicidal ratio of 90% or more (almost completely withered)) | 5 (Herbicidal ratio of 90% or more (almost completely withered)) | 4 (Herbicidal ratio of 70% or more and less than 90%) | 5 (Herbicidal ratio of 90% or more (almost completely withered)) | 5 (Herbicidal ratio of 90% or more (almost completely withered)) | 5 (Herbicidal ratio of 90% or more (almost completely withered)) | – |
| COc1ccc(CN(C)c2nnc3c(C(=O)Nc4nnc(C)o4)ccc(C(F)(F)F)n23)cc1 [1-167] | – | 2 (Herbicidal ratio of 20% or more and less than 40%) | 4 (Herbicidal ratio of 70% or more and less than 90%) | 0 (Herbicidal ratio of 5% or less (almost no effect)) | 0 (Herbicidal ratio of 5% or less (almost no effect)) | – | 1 (Herbicidal ratio of 5% or more and less than 20%) | 2 (Herbicidal ratio of 20% or more and less than 40%) | 0 (Herbicidal ratio of 5% or less (almost no effect)) |
